Here are results for five compounds from article PMC11510433, “Exploration of the Solubility Hyperspace of Selected Active Pharmaceutical Ingredients in Choline- and Betaine-Based Deep Eutectic Solvents: Machine Learning Modeling and Experimental Validation” (Molecules, 2024).

Like-named read-outs stand apart in the source and are kept apart here.

On the set-up of data set [1]: method as in ref 2014-Delgado-10.1007s10953-014-0169-0. To be noted: 1-Propanol + water, ref 2014-Delgado-10.1007s10953-014-0169-0, cited from earlier work.
Details of data set [2]: method as in ref 2017-Zhong-10.1021acs.jced.7b00065. To be noted: solvent 1-propanol, ref 2017-Zhong-10.1021acs.jced.7b00065, cited from earlier work.
For data set [3] the following is noted: A:D 1:1, x*DES 1.0 (water 0.00), T 25.0 °C, ref 2024-Cysewski-10.3390molecules29102296, cited from earlier work.
Data set [4] is described as follows: shake-flask solubility of sulfonamides in choline chloride- and betaine-based deep eutectic solvents (new measurements). In kind it is physicochemical. As to the method:
The solubility measurements were preceded by the determination of the calibration curves for the studied sulfonamides. Stock solutions of these compounds were prepared in methanol and subsequently diluted. The obtained series of solutions with decreasing concentrations were then measured spectrophotometrically using an A360 spectrophotometer from AOE Instruments (Shanghai, China) in the wavelength range of 200 nm to 500 nm. Their characteristic wavelengths were determined, and the corresponding absorbance values were plotted against the concentrations of the solutions. Three separate curves were prepared, and the obtained values were averaged. The calibration curves were validated in terms of their linearity, expressed by the determination coefficient R^2, as well as the limits of detection (LOD) and quantification (LOQ).
For determining the solubility of the studied sulfonamides in different eutectic compositions, a standard shake-flask procedure was applied.
The first step in this procedure involved the preparation of the deep eutectic solvents, which was performed by combining a hydrogen bond donor with a hydrogen bond acceptor. The HBA:HBD molar ratio was set to 1:2. […] The eutectics were prepared by weighing appropriate amounts of the two counterparts in glass vessels and heating them until a homogenous solution was obtained.
The samples of sulfonamides in DESs were prepared by adding an excess amount of the solute to the test tube, followed by an addition of the specific eutectic. The saturated solutions obtained in this manner were placed in an Orbital Shaker Incubator ES-20/60 from Biosan (Riga, Latvia) and heated at 25 °C, 30 °C, 35 °C, or 40 °C for 24 h with stirring at 60 rev/min. Before the measurements, the samples were filtered using a 0.22 µm pore-size PTFE syringe filter. The spectra of the filtered solutions were recorded after the dilution with methanol in the 200 nm–500 nm wavelength range with a 1 nm resolution. […] The absorbance values found at the characteristic wavelengths were used together with the linear regression equations to calculate the concentration of the considered solutes. Simultaneously, for the computation of the mole fraction solubility, the density of the samples was determined by weighing 1 mL of the sample on a RADWAG (Radom, Poland) AS 110 R2.PLUS analytical balance with 0.1 mg precision. Three separate samples were measured for each system, and the values were averaged.

Where [5] appears, read: best-performing ChCl-TEG system, 1:2, 25 °C.

Take `Cc1cc(C)nc(NS(=O)(=O)c2ccc(N)cc2)n1` [sulfamethazine]: the “log(x1)exp” value was -4.226 in data set [1] (x2* 0.0322, x3* 0.97, T 20.00 °C); -4.133 in data set [1] (x2* 0.0322, x3* 0.97, T 25.00 °C); -4.044 in data set [1] (x2* 0.0322, x3* 0.97, T 30.00 °C).
On to `Cn1c(=O)c2c(ncn2C)n(C)c1=O` [caffeine], for which the “log(x1)exp” value in data set [2] (T 14.86 °C) is given as -2.932; in data set [2] (T 24.96 °C), -2.752; in data set [2] (T 34.94 °C), -2.550.
Take `CC(C)Cc1ccc(C(C)C(=O)O)cc1` (stereo not shown) [ibuprofen]: the “log(x1)exp” value is -0.616 in data set [3] (choline chloride + DEG), -0.793 in data set [3] (choline chloride + P2D) and -0.580 in data set [3] (choline chloride + TEG).
For `O=C(O)c1cc(/N=N/c2ccc(S(=O)(=O)Nc3ccccn3)cc2)ccc1O` [sulfasalazine], the Mole fraction solubility in data set [4] (DES BI-DEG, HBA:HBD 1:2, 25°C) was 0.67(±0.09) mole fraction ∙10^4; in data set [4] (DES BI-DEG, HBA:HBD 1:2, 30°C), 0.70(±0.08) mole fraction ∙10^4; in data set [4] (DES BI-DEG, HBA:HBD 1:2, 35°C) it was 0.75(±0.06) mole fraction ∙10^4; in data set [4] (DES BI-DEG, HBA:HBD 1:2, 40°C), 0.79(±0.05) mole fraction ∙10^4; in data set [4] (DES BI-ETG, HBA:HBD 1:2, 25°C), 0.55(±0.07) mole fraction ∙10^4; in data set [4] (DES BI-ETG, HBA:HBD 1:2, 30°C) it was 0.58(±0.02) mole fraction ∙10^4. In addition, the Mole fraction solubility is listed as 0.62(±0.06) mole fraction ∙10^4 in data set [4] (DES BI-ETG, HBA:HBD 1:2, 35°C); 0.67(±0.08) mole fraction ∙10^4 in data set [4] (DES BI-ETG, HBA:HBD 1:2, 40°C); 0.41(±0.06) mole fraction ∙10^4 in data set [4] (DES BI-P2D, HBA:HBD 1:2, 25°C); 0.46(±0.10) mole fraction ∙10^4 in data set [4] (DES BI-P2D, HBA:HBD 1:2, 30°C); 0.49(±0.08) mole fraction ∙10^4 in data set [4] (DES BI-P2D, HBA:HBD 1:2, 35°C); 0.52(±0.04) mole fraction ∙10^4 in data set [4] (DES BI-P2D, HBA:HBD 1:2, 40°C). Besides, the Mole fraction solubility was 0.69(±0.04) mole fraction ∙10^4 in data set [4] (DES BI-TEG, HBA:HBD 1:2, 25°C); 0.72(±0.02) mole fraction ∙10^4 in data set [4] (DES BI-TEG, HBA:HBD 1:2, 30°C); 0.77(±0.09) mole fraction ∙10^4 in data set [4] (DES BI-TEG, HBA:HBD 1:2, 35°C); 0.81(±0.07) mole fraction ∙10^4 in data set [4] (DES BI-TEG, HBA:HBD 1:2, 40°C); 0.71(±0.09) mole fraction ∙10^4 in data set [4] (DES ChCl-DEG, HBA:HBD 1:2, 25°C); 0.75(±0.07) mole fraction ∙10^4 in data set [4] (DES ChCl-DEG, HBA:HBD 1:2, 30°C). In addition, the Mole fraction solubility in data set [4] (DES ChCl-DEG, HBA:HBD 1:2, 35°C) is 0.80(±0.14) mole fraction ∙10^4; in data set [4] (DES ChCl-DEG, HBA:HBD 1:2, 40°C) it was 0.83(±0.02) mole fraction ∙10^4; in data set [4] (DES ChCl-ETG, HBA:HBD 1:2, 25°C) it was 0.62(±0.09) mole fraction ∙10^4; in data set [4] (DES ChCl-ETG, HBA:HBD 1:2, 30°C), 0.65(±0.01) mole fraction ∙10^4; in data set [4] (DES ChCl-ETG, HBA:HBD 1:2, 35°C) it was 0.69(±0.06) mole fraction ∙10^4; in data set [4] (DES ChCl-ETG, HBA:HBD 1:2, 40°C), 0.72(±0.08) mole fraction ∙10^4. Besides, the Mole fraction solubility was 0.50(±0.08) mole fraction ∙10^4 in data set [4] (DES ChCl-P2D, HBA:HBD 1:2, 25°C); 0.53(±0.03) mole fraction ∙10^4 in data set [4] (DES ChCl-P2D, HBA:HBD 1:2, 30°C); 0.56(±0.07) mole fraction ∙10^4 in data set [4] (DES ChCl-P2D, HBA:HBD 1:2, 35°C); 0.59(±0.01) mole fraction ∙10^4 in data set [4] (DES ChCl-P2D, HBA:HBD 1:2, 40°C); 0.75(±0.05) mole fraction ∙10^4 in data set [4] (DES ChCl-TEG, HBA:HBD 1:2, 25°C); 0.78(±0.07) mole fraction ∙10^4 in data set [4] (DES ChCl-TEG, HBA:HBD 1:2, 30°C). In addition, the Mole fraction solubility in data set [4] (DES ChCl-TEG, HBA:HBD 1:2, 35°C) was 0.82(±0.01) mole fraction ∙10^4; in data set [4] (DES ChCl-TEG, HBA:HBD 1:2, 40°C) it was 0.86(±0.02) mole fraction ∙10^4; in data set [4] (setting [5]), 0.000075 mole fraction.
The compound `CCCN(CCC)S(=O)(=O)c1ccc(C(=O)O)cc1` [probenecid] yielded a Mole fraction solubility in data set [4] (setting [5]) of 0.00124 mole fraction.
